In brackets after ≈: the same amount, converted by molar mass. Counter-ions that a name gives are not always drawn. Like-named read-outs stand apart in the source and are kept apart here.
Experiments:
prion model [1] = test: organism not typed; type: cell-based
prion model [2] = type: biochemical
prion model [3] = type: cell-based; conditions: ethylene oxide 600 mg/L, 18 mins, initial count 8.5

Compound | activity at inhibiting the growth of the prion model in culture media (prion model [1]) | concentration showing at least some effect on growth of the prion model (MIC test) (prion model [1]) | further results
CC(=O)OO [Peracetic acid] | – | – | MIC (prion model [1]; read-out: concentration showing at least some effect on growth of the prion model (MIC test)): ~600 µg/mL (≈ 7.89 mM); breakdown of the protein (prion model [2]): break down the protein to a form which is inactive
[Na+].[OH-] [NaOH, sodium hydroxide] | effective | ~0.01 N | –
Cl [HCl] | – | ~0.1 N | –
[Mn+2] [Manganese] | measurable activity | ~100 mg/L | –
NC[C@@H]1O[C@H](O[C@H]2[C@@H](O)[C@H](O[C@@H]3[C@@H](O)[C@H](N)C[C@H](N)[C@H]3O[C@H]3O[C@H](CN)[C@@H](O)[C@H](O)[C@H]3N)O[C@@H]2CO)[C@H](N)[C@@H](O)[C@@H]1O.O=S(=O)(O)O [neomycin sulphate] | measurable activity | ~125 mg/L | –
O=[N+]([O-])[O-].[Ag+] [silver nitrate] | measurable activity | ~30 mg/L | –
C1CO1 [ethylene oxide] | – | – | Prion count in Logs (prion model [3]; 54° C., 40% RH): 4.7 Logs; Prion count in Logs (prion model [3]; 70° C., 100% RH): 5.0 Logs

Reference: patent US7129080B2 (priority 2001, dated 2006)
